pIC50: −log10 of the molar value.

For experiment [1], the system named is pERK in A375 cells. The experiment can be described thus: In Cell Western (ICW) assay, pERK in A375 cells. Format: cell-based. Conditions: Homo sapiens, A-375, 3 h treatment. Put shortly:
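After a 3 h compound treatment at 37 °C, fixed RKO or A375 cells were probed for phospho-ERK1/2 (T202/Y204), phospho-S6RP or phospho-AKT T308 and detected with a Eu-tagged anti-rabbit antibody (ex 340/em 615 nm), with Hoechst signal as the cell-number correction. Inhibition was referenced to DMSO, and IC50 values came from sigmoidal dose-response curves.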

The target of experiment [2] is T1, PI3Kα (Homo sapiens, UniProt P42336).
T1 construct: made in house; host or cells: SF9 cells
T1 sequence (P42336 whole entry, species assumed): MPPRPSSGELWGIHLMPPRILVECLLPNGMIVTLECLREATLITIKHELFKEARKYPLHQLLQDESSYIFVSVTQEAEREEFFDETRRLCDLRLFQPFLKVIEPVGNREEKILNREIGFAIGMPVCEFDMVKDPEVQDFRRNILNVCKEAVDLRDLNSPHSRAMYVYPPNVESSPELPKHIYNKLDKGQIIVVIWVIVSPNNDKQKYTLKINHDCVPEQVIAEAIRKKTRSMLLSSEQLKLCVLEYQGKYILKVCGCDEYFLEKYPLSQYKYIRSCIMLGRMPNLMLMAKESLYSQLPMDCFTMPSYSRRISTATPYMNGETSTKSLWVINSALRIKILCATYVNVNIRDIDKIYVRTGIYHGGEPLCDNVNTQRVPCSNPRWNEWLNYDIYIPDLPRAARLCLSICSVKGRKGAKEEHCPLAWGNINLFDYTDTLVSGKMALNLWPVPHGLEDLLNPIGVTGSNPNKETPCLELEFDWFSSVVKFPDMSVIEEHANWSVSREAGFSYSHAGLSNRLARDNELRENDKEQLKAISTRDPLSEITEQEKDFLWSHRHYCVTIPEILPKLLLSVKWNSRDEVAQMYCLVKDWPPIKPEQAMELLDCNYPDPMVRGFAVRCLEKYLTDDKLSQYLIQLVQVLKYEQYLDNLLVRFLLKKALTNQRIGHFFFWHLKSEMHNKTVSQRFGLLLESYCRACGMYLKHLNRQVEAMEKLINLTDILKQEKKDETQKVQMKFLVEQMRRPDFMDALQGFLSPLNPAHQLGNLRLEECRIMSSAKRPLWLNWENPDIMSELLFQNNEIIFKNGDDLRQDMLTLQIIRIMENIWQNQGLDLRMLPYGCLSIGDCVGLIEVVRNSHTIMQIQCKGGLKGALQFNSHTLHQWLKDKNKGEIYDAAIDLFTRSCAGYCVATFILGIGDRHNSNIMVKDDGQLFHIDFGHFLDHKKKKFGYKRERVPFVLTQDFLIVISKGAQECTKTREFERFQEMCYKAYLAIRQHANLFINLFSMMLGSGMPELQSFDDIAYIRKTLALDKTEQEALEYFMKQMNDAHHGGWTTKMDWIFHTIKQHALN
T1 sequence (P27986 whole entry partner, species assumed): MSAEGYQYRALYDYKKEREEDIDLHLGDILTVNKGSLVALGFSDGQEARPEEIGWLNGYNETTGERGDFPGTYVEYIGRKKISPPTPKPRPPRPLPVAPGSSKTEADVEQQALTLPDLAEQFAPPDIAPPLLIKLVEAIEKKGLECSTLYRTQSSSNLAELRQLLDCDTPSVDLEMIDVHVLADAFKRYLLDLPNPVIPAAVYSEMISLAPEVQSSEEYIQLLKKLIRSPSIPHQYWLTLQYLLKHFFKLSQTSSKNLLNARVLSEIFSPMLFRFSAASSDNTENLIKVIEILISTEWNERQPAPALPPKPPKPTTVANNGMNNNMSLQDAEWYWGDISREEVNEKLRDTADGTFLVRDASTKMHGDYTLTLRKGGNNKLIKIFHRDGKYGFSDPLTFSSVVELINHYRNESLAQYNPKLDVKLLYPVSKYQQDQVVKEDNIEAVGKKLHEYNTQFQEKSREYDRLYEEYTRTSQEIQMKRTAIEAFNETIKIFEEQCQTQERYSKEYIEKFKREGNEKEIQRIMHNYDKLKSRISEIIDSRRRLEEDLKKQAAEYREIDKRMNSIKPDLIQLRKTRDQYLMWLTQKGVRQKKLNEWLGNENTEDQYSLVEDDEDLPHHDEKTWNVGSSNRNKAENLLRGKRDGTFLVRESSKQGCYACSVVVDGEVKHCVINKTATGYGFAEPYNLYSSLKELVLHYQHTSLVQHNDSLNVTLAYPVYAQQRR
The experiment can be described thus: PI3 Kinase alpha TR-FRET assay. In kind it is biochemical. How it is done: Compound inhibition for PI3Kα was determined in a homogeneous TR-FRET assay using a PI3Kα assay kit (Millipore, US, Catalog #33-016). The PI3 kinase catalyzes phosphorylation of […] (PIP2) to phosphatidylinositol 3,4,5-trisphosphate (PIP3) in the presence of ATP and Mg^2+. The PIP3 product is detected by displacement of biotin-PIP3 from an energy transfer complex consisting of Europium labeled anti-GST monoclonal antibody, a GST-tagged pleckstrin homology (PH) domain, biotinylated PIP3 and Streptavidin-Allophycocyanin (APC). Excitation of Europium in the complex results in an energy transfer to the APC and a fluorescence emission at 665 nm.
Compounds tested were dissolved in DMSO and directly distributed into 384-well plates at a volume of 0.5 μL. P110/P85a/PIP2 mixture (14.5 μL) was added to compound wells and incubated for 30 min at rt […]. P110/P85a was expressed in SF9 cells and purified in-house. 5 ng P110/P85a was used in the assay. The kinase reaction was started by the addition of ATP. The assay concentrations of both PIP2 and ATP were 40 μM. The reaction mixture was incubated for 30 min and was terminated by the addition of stop mix and detection mix. Fluorescence was measured at 615 and 665 nm upon excitation at 340 nm in a Victor V5 fluorometer (Perkin Elmer, US). The fluorescence emission ratio at 665 to 615 nm, proportional to the kinase activity, was plotted against the compound concentration to generate dose-response curves and IC50 values were determined.

The target of experiment [3] is T2, B-RAFV600E (Homo sapiens, UniProt P15056, V600E).
T2 construct: purchased Millipore, USA 14-557
T2 sequence (P15056 416-766 V600E limits assumed): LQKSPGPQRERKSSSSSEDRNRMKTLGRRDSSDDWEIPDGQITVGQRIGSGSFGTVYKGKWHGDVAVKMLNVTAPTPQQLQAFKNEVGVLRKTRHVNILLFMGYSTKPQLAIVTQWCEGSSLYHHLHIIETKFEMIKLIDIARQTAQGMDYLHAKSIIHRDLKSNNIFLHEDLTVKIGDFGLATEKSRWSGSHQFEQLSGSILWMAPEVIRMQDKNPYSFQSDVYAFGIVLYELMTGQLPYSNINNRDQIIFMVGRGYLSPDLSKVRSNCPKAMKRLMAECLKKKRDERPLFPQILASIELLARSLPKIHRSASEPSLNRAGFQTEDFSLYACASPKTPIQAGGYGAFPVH
The experiment can be described thus: B-RAFV600E radiometric assay. In kind it is biochemical. The note with it: read-out: Kinase assay B-Raf. Put shortly:
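B-RAFV600E was preincubated 45 min at rt with compound in 1% DMSO. MEK-K97M (0.5 μg), 5 μM final cold ATP and [γ-32P]ATP were then added for 2 h at rt. Phosphorylated MEK was captured on P81 paper and scintillation-counted; IC50 came from a sigmoidal dose-response fit.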

Experiment [4] deals with T3, mTOR kinase (Homo sapiens, UniProt P42345).
T3 construct: purchased Millipore, US
T3 sequence (P42345 1362-2549 limits assumed): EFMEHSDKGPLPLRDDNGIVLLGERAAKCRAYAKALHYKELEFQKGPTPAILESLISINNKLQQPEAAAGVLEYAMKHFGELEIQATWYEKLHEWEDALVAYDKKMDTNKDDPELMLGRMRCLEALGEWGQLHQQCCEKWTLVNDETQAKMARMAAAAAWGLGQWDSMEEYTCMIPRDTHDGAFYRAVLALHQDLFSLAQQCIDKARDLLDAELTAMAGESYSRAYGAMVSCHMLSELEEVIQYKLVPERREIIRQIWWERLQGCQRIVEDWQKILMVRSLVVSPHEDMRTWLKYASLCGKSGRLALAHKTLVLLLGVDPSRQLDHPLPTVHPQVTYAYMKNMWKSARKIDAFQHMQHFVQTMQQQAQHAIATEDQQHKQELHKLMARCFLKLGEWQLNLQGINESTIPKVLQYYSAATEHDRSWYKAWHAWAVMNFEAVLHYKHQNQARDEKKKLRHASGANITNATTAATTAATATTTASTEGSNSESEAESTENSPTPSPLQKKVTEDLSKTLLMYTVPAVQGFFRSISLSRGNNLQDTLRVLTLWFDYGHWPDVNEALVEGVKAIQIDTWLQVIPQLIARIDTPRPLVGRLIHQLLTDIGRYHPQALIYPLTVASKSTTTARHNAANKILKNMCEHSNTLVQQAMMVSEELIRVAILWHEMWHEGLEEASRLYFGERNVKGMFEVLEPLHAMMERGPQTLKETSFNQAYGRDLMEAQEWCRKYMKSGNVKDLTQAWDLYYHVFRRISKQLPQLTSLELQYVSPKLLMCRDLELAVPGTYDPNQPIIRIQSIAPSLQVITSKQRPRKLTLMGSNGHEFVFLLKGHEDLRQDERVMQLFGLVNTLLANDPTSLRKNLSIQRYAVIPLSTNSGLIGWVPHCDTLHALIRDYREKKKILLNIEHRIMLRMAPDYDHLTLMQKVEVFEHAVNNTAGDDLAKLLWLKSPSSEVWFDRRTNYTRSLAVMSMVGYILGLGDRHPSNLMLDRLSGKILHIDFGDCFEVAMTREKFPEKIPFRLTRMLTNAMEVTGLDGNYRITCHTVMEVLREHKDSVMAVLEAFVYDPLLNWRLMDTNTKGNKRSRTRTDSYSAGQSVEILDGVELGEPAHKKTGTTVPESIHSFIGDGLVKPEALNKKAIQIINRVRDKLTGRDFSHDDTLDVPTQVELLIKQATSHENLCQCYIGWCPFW
The experiment can be described thus: mTOR kinase TR-FRET assay. Format: biochemical. Summed up:
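TR-FRET with ULight-p70 S6K (Thr 389) peptide (50 nM) and 20 μM ATP in 50 mM HEPES pH 7.5, 1 mM EGTA, 3 mM MnCl2; compound pre-incubated with enzyme before substrate addition, reaction at rt, EDTA-stopped. Eu anti-phospho antibody read 665/615 nm; IC50 from sigmoidal dose-response fit.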

The subject of experiment [5] is A375 cells. The experiment can be described thus: XTT assay for cell viability, A375 cells. The note with it: Homo sapiens, A-375, 72 h. In kind it is cell-based. Here is the method: Cell lines (A375 ATCC No. CRL-1619, A2058 ATCC No. CRL-11147 and RKO ATCC No. CRL-2577, American Type Culture Collection (ATCC), Manassas Va.) once attaining ˜80% confluency were trypsinized, centrifuged and resuspended in fresh media. Cells (1000-2000/per well) were seeded in 96-well plate and incubated over-night at 37° C. in a 5% CO2 incubator. Compound dilutions were prepared in 100% DMSO followed by dilutions in the respective media. The cells were treated with NCEs for 72 h at 37° C. in 5% CO2 incubator. After 72 h, freshly prepared XTT (1 mg/ml)/PMS (25 μM) solution was added, incubated for 2 to 3 h at 37° C. and the absorbance was measured at 450 nm using an ELISA plate reader. Keeping DMSO control as 100%, the effect of the compound to inhibit the cell proliferation was calculated and the GI50 values were determined using sigmoidal dose response curve fit in GraphPad Prism® v5 software.

Regarding `CCCS(=O)(=O)Nc1cccc(-c2cc(OC)c3nc(-c4cnc(N)cc4C(F)(F)F)nc(N4CCOCC4)c3c2)c1F` [Example 25, N-(3-(2-(6-amino-4-(trifluoromethyl)pyridin-3-yl)-8-methoxy-4-morpholinoquinazolin-6-yl)-2-fluorophenyl)propane-1-sulfonamide], the pIC50 in experiment [1], in experiment [2] and in experiment [3] was 6.00 to 7.00 each time.

With `CCCS(=O)(=O)Nc1cccc(-c2cc(OC)c3nc(-c4cnc(N)c(Cl)c4)nc(N4CCOCC4)c3c2)c1F` [Example 48, N-(3-(2-(6-amino-5-chloropyridin-3-yl)-8-methoxy-4-morpholinoquinazolin-6-yl)-2-fluorophenyl)propane-1-sulfonamide], the values for the pIC50 in experiment [2] and in experiment [3] were 6.00 to 7.00 and 7.00 to 9.00, respectively.

Regarding `NCCOc1cc(-c2cccc(NS(=O)(=O)CCCF)c2F)cc2c(N3CCOCC3)nc(-c3ccc(N)nc3)nc12` [Example 56, N-(3-(8-(2-aminoethoxy)-2-(6-aminopyridtn-3-yl)-4-morpholinoquinazolin-6-yl)-2-fluorophenyl)-3-fluoropropane-1-sulfonamide], the pIC50 in experiment [4] is 7.00 to 9.00; in experiment [1], 7.00 to 9.00; in experiment [2] it was 6.00 to 7.00; in experiment [3], 7.00 to 9.00.

Consider `COc1cc(-c2c(F)ccc(NS(=O)(=O)c3c(F)cccc3F)c2F)cc2c(N3CCOCC3)nc(-c3ccc(N)nc3)nc12` [Example 77, N-(3-(2-(6-aminopyridin-3-yl)-8-methoxy-4-morpholinoquinazolin-6-yl)-2,4-difluorophenyl)-2,6-difluorobenzenesulfonamide], for which the pIC50 is 6.00 to 7.00 in experiment [5], 6.00 to 7.00 in experiment [4], 6.00 to 7.00 in experiment [1] and 7.00 to 9.00 in experiment [3].

Consider `COc1cc(-c2c(F)ccc(NS(=O)(=O)c3cc(F)ccc3F)c2F)cc2c(N3CCOCC3)nc(-c3ccc(N)nc3)nc12` [Example 78, N-(3-(2-(6-aminopyridin-3-yl)-8-methoxy-4-morpholinoquinazolin-6-yl)-2,4-difluorophenyl)-2,5-difluorobenzenesulfonamide], for which the pIC50 is 6.00 to 7.00 in experiment [5], 6.00 to 7.00 in experiment [4], 7.00 to 9.00 in experiment [1] and 7.00 to 9.00 in experiment [3].

As to `CCCS(=O)(=O)Nc1ccc(Cl)c(-c2cc(OC)c3nc(-c4ccc(N)nc4)nc(N4CCOCC4)c3c2)c1F` [Example 80, N-(3-(2-(6-aminopyridin-3-yl)-8-methoxy-4-morpholinoquinazolin-6-yl)-4-chloro-2-fluorophenyl)propane-1-sulfonamide], the pIC50 in experiment [5] was 6.00 to 7.00; in experiment [4], 6.00 to 7.00; in experiment [1], 6.00 to 7.00; in experiment [3], 7.00 to 9.00.

For the compound `COc1cc(-c2c(F)ccc(NS(=O)(=O)CCCF)c2F)cc2c(N3CCOCC3)nc(-c3cnc(N)nc3)nc12` [Example 82, N-(3-(2-(2-aminopyrimidin-5-yl)-8-methoxy-4-morpholinoquinazolin-6-yl)-2,4-difIuorophenyl)-3-fluoropropane-1-sulfonamide], the pIC50 was 7.00 to 9.00 in experiment [5], 6.00 to 7.00 in experiment [4], 7.00 to 9.00 in experiment [1] and 7.00 to 9.00 in experiment [3].

As to `COc1cc(-c2c(F)ccc(NS(=O)(=O)CCCF)c2F)cc2c(N3CCOCC3)nc(-c3cnc(N)cc3C(F)(F)F)nc12` [Example 84, N-(3-(2-(6-amino-4-(trifluoromethyl)pyridin~3-yl)-8-methoxy-4-morpholinoquinazolin-6-yl)-2,4-difluorophenyl)-3-fluoropropane-1-sulfonamide], the values for the pIC50 in experiment [2] and in experiment [3] were 6.00 to 7.00 and 7.00 to 9.00, respectively.

With `O=S(=O)(CCCF)Nc1cccc(-c2ccc3nc(-c4cccc5[nH]ncc45)nc(N4CCOCC4)c3n2)c1F` [Example 89, N-(3-(2-(1H-indazol-4-yl)-4-morpholinopyrido[3,2-d]pyrimidin-6-yl)-2-fluorophenyl)-3-fluoropropane-1-sulfonamide], the pIC50 is 6.00 to 7.00 in experiment [4], 6.00 to 7.00 in experiment [2] and 7.00 to 9.00 in experiment [3].

`O=S(=O)(CCCF)Nc1cccc(-c2ccc3nc(-c4cnc5[nH]ccc5c4)nc(N4CCOCC4)c3n2)c1F` [Example 91, 3-fluoro-N-(2-fluoro-3-(4-morpholtno-2-(1H-pyrrolo[2,3-b]pyrldin-5-yl)pyrido[3,2-d]pyrimidin-6-yl)phenyl)propane-1-sulfonamide]: the pIC50 in experiment [4], in experiment [2] and in experiment [3] was 7.00 to 9.00 each time.

Take `Nc1ncc(-c2nc(N3CCOCC3)c3nc(-c4cccc(NS(=O)(=O)c5c(F)cccc5F)c4F)ccc3n2)cn1` [Example 98, N-(3-(2-(2-aminopyrimidin-5-yl)-4-morpholinopyrido[3,2-d]pyrimidin-6-yl)-2-fluorophenyl)-2,6-difluorobenzenesulfonamide]: the pIC50 in experiment [4] is 6.00 to 7.00; in experiment [2] it was 7.00 to 9.00; in experiment [3], 7.00 to 9.00.

For the compound `C[C@@H]1COCCN1c1nc(-c2cnc(N)cc2C(F)(F)F)nc2ccc(-c3cccc(NS(=O)(=O)CCCF)c3F)nc12` [Example 107, (R)-N-(3-(2-(6-amlno-4-(trifluoromethyl)pyridin-3-yl)-4-(3-methylmorpholino)pyrido[3,2-d]pyrimidin-6-yl)-2-fluorophenyl)-3-fluoropropane-1-sulfonamide], the pIC50 in experiment [2] is 6.00 to 7.00; in experiment [3], 7.00 to 9.00.

Turning to `CCCNc1ncc(-c2nc(N3CCOCC3)c3nc(-c4cccc(NS(=O)(=O)CCCF)c4F)ccc3n2)cn1` [Example 112, 3-fluoro-N-(2-fluoro-3-(4-morpholino-2-(2-(propylamino)pyrimidin-5-yl)pyrido[3,2-d]pyrimidin-6-yl)phenyl)propane-1-sulfonamide], the pIC50 is 6.00 to 7.00 in experiment [2] and 7.00 to 9.00 in experiment [3].

Take `CCCNc1ccc(-c2nc(N3CCOCC3)c3nc(-c4cccc(NS(=O)(=O)CCCF)c4F)ccc3n2)cn1` [Example 115, 3-fluoro-N-(2-fluoro-3-(4-morpholino-2-(6-(propylamino)pyridin-3-yl)pyrido[3,2-d]pyrimidin-6-yl)phenyl)propane-1-sulfonamide]: the pIC50 is 6.00 to 7.00 in experiment [4], 6.00 to 7.00 in experiment [2] and 7.00 to 9.00 in experiment [3].

Turning to `CNc1ncc(-c2nc(N3CCOCC3)c3nc(-c4cccc(NS(=O)(=O)CCCF)c4F)ccc3n2)cn1` [Example 121, 3-fluoro-N-(2-fluoro-3-(2-(2-(methylamino)pyrimidin-5-yl)-4-morpholinopyrido[3,2-d]pyrimidin-6-yl)phenyl)propane-1-sulfonamide], the pIC50 is 6.00 to 7.00 in experiment [4], 6.00 to 7.00 in experiment [1], 7.00 to 9.00 in experiment [2] and 7.00 to 9.00 in experiment [3].

In the case of `CCNc1ncc(-c2nc(N3CCOCC3)c3nc(-c4cccc(NS(=O)(=O)CCCF)c4F)ccc3n2)cn1` [Example 122, N-(3-(2-(2-(ethylamino)pyrimidin-5-yl)-4-morpholinopyrido[3,2-d]pyrimidin-6-yl)-2-fluorophenyl)-3-fluoropropane-1-sulfonamide], the pIC50 is 6.00 to 7.00 in experiment [2] and 7.00 to 9.00 in experiment [3].
